Data on 22 compounds can be found in patent publication US20070167456A1, “Mercaptoimidazoles as ccr2 receptor antagonists” (priority 2004, published 2007).

For the first data set, the target named is T1, CCR2 receptor (Homo sapiens, UniProt P41597).
T1 construct: host or cells: THP-1 (human monocytic cell line)
T1 sequence (P41597 1-360 isoform P41597-2): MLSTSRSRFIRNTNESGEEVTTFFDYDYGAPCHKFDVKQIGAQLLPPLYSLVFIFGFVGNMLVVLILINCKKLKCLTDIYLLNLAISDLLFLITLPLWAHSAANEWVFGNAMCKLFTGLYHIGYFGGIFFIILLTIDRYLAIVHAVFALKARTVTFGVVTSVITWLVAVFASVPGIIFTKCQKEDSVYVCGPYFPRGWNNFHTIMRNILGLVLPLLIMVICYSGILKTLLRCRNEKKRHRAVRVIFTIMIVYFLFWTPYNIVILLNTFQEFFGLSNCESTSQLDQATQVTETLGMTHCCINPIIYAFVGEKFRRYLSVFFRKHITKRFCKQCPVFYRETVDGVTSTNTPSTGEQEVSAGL
The data set can be described thus: Inhibition of MCP-1 induced Ca-flux in human THP-1 cells. In kind it is cell-based. The following applies: inhibition of specific MCP-1 induced Ca2+ flux, 10^-7 M hMCP-1, 20 minutes pre-incubation, FLIPR, Fluo-3 AM. Here is the method: Inhibition of MCP-1 Induced Ca-flux in Human THP-1 Cells
MCP-1 binding to the CCR2 receptor induces a rapid and transient intracellular release of Ca^2+ (secondary messenger) in several cell lines (Charo et al, PNAS 1994). Free Ca^2+ levels can be measured using a Ca^2+ sensitive dye. When the CCR2 receptor is blocked with a CCR2 receptor antagonist, the MCP-1 induced release of Ca^2+ is inhibited.
Human THP-1 cells (monocytic cell line, ATCC TIB-202) were cultured in RPMI 1640 medium supplemented with 10% fetal calf serum (FCS), 1% L-Glutamine, penicillin (50 U/ml) and streptomycin (50 μg/ml) (all GIBCO BRL, Gent). After centrifugation, cells were loaded for 30 minutes with the Ca^2+ sensitive fluorescent dye Fluo-3 AM (Molecular Probes, Leiden, Netherlands) (2 million cells/ml in RPMI medium containing 4 μM Fluo-3 AM, 20 mM HEPES, 0.1% Bovine Serum Albumin (BSA) and 5 mM probenecid). Excess dye was removed by 3-fold washing with buffer (5 mM HEPES, 140 mM NaCl, 1 mM MgCl2, 5 mM KCl, 10 mM glucose, 2.5 mM probenecid, 1.25 mM CaCl2, 0.1% BSA; all further incubations were done in this buffer). Cells were plated at a density of 150 000 cells/well in dark-wall 96-well plates (Costar, Cambridge, Mass.) and sedimented by centrifugation (1 minute). The cells were pre-incubated for 20 minutes with test compound. Then, 10^−7 M hMCP-1 (Bachem, Bubendorf, Switserland) was added. Changes in intracellular free Ca^2+ concentration were measured using the Fluorescent Imaging Plate Reader (FLIPR, Molecular Devices, Munchen, Germany). Fluorescence was recorded every second from 10 seconds before the addition of the MCP-1 till 2 minutes after the addition (first minute: 60 records with 1 second intervals, second minute 20 records with 3 second intervals). The maximal fluorescence obtained during this time frame was used for further calculations.
Table 3 reports pIC50 values obtained in the above-described test for compounds of formula (I). pIC50 defines −log IC50 wherein IC50 is the molar concentration of the test compound which inhibits 50% of specific MCP-1 induced Ca^2+ flux.
By IC50 is commonly meant the midpoint of a concentration-inhibition curve. For `CCC(c1ccc(Cl)c(Cl)c1)n1c(C(=O)OC)c(N)[nH]c1=S` (stereo not drawn) [Compound 1], the IC50 is 0.0631 µM.
Same read-out and setting: the same measure for `CCC(c1ccc(Cl)c(Cl)c1)n1c(C(=O)OC)c(NC(C)=O)[nH]c1=S` (stereo not drawn) [Compound 2]: 0.0501 µM.
In turn, `CCC(c1ccc(Cl)c(Cl)c1)n1c(C(=O)OC)c(NC(=O)c2cnccn2)[nH]c1=S` (stereo not drawn) [Compound 3] showed an IC50 of 0.0794 µM.
Same read-out and setting: the same measure for `CCC(=O)Nc1[nH]c(=S)n(C(CC)c2ccc(Cl)c(Cl)c2)c1C(=O)OC` (stereo not drawn) [Compound 4]: 0.126 µM.
Consider `CCC(c1ccc(Cl)c(Cl)c1)n1c(C(=O)OC)c(NC(=O)c2cccnc2)[nH]c1=S` (stereo not drawn) [Compound 5], for which the concentration for half-maximal inhibition (IC50) was 0.2 µM.
In the case of `CCC(c1ccc(Cl)c(Cl)c1)n1c(C(=O)OC)c(NC(=O)c2ccncc2)[nH]c1=S` (stereo not drawn) [Compound 6], the 50% inhibitory concentration (IC50) was 0.126 µM.
The compound `CCC(c1ccc(Cl)c(Cl)c1)n1c(C(=O)OC)c(NC(=O)c2cc(C)on2)[nH]c1=S` (stereo not drawn) [Compound 7] showed an IC50 of 0.158 µM.
On the same count and under the same terms, the figure for `CCC(c1ccc(Cl)c(Cl)c1)n1c(C(=O)OC)c(NC(=O)c2nonc2C)[nH]c1=S` (stereo not drawn) [Compound 8] is 0.501 µM; for `CCC(c1ccc(Cl)c(Cl)c1)n1c(C(=O)OC)c(NC(=O)c2cncnc2)[nH]c1=S` (stereo not drawn) [Compound 9] it is 0.2 µM; for `CCC(c1ccc(Cl)c(Cl)c1)n1c(C(=O)OC)c(NC(=O)c2ccccc2)[nH]c1=S` (stereo not drawn) [Compound 10] it is 0.2 µM.
The same measure, in the same setting: the figure for `CCC(c1ccc(Cl)c(Cl)c1)n1c(C(=O)OC)c(NC(=O)c2ccco2)[nH]c1=S` (stereo not drawn) [Compound 11] is 0.0251 µM; for `CCC(c1ccc(Cl)c(Cl)c1)n1c(C(=O)OC)c(NC(=O)c2ccccn2)[nH]c1=S` (stereo not drawn) [Compound 12] it is 0.0398 µM; for `CCC(c1ccc(Cl)c(Cl)c1)n1c(C(=O)OC)c(NC(=O)C2CCOC2)[nH]c1=S` (stereo not drawn) [Compound 13] it is 0.0794 µM.
On the same count and under the same terms, the same measure for `CCC(c1ccc(Cl)c(Cl)c1)n1c(C(=O)OC)c(NC(=O)OC)[nH]c1=S` (stereo not drawn) [Compound 15]: 0.0158 µM; for `CCC(c1ccc(Cl)c(Cl)c1)n1c(C(=O)OC)c(NC(=O)NCC(OC)OC)[nH]c1=S` (stereo not drawn) [Compound 16]: 0.251 µM.
In turn, `CCC(c1ccc(Cl)c(Cl)c1)n1c(C(=O)OC)c(NC(=O)NCc2ccccc2)[nH]c1=S` (stereo not drawn) [Compound 17] gave an IC50 of 0.631 µM.
The same measure, in the same setting: the figure for `CCC(c1ccc(Cl)c(Cl)c1)n1c(C(=O)OC)c(NC(=O)N2CCOCC2)[nH]c1=S` (stereo not drawn) [Compound 18] is 0.1 µM; for `CCC(c1ccc(Cl)c(Cl)c1)n1c(C(=O)OC)c(NC(=O)C2CCCO2)[nH]c1=S` (stereo not drawn) [Compound 19] it is 0.0794 µM; for `CCC(c1ccc(Cl)c(Cl)c1)n1c(C(=O)OC)c(NC(=O)N2CCN(C)CC2)[nH]c1=S` (stereo not drawn) [Compound 20] it is 0.316 µM.
On the same count and under the same terms, the same measure for `CCC(c1ccc(Cl)c(Cl)c1)n1c(C(=O)OC)c(NC(=O)N2CCCC2)[nH]c1=S` (stereo not drawn) [Compound 21]: 0.126 µM.
The compound `CCC(c1ccc(Cl)c(Cl)c1)n1c(C(=O)OC)c(NC(=O)N2CCN(Cc3ccccc3)CC2)[nH]c1=S` (stereo not drawn) [Compound 22] showed an IC50 of 0.398 µM.
`CCC(c1ccc(Cl)c(Cl)c1)n1c(C(=O)OC)c(NC(=O)N2CCCCC2)[nH]c1=S` (stereo not drawn) [Compound 23]: the midpoint of inhibition, the IC50, lay at 0.158 µM.

Tested on in the next data set: not given
Assay: not given
Settings: not given
The melting point is the temperature of the solid-liquid transition. `CCC(c1ccc(Cl)c(Cl)c1)n1c(C(=O)OC)c(N)[nH]c1=S` (stereo not drawn) [Compound 1] displayed a melting point of 183.9 to 184 °C.
Same read-out and setting: the same measure for `CCC(c1ccc(Cl)c(Cl)c1)n1c(C(=O)OC)c(NC(=O)c2cnccn2)[nH]c1=S` (stereo not drawn) [Compound 3]: 196.9 to 198.6 °C.
